Experimental findings from ChEMBL document CHEMBL5252617, “Design, synthesis and biological evaluation of novel N-(methyl-d3) pyridazine-3-carboxamide derivatives as TYK2 inhibitors” (Bioorg Med Chem Lett, 2023) are described below.

Structures are written as SMILES.

Test [1] has as its target T1, Non-receptor tyrosine-protein kinase TYK2 (Homo sapiens, UniProt P29597). In words: Binding affinity to TYK2 JH2 domain (unknown origin) assessed as melting temperature at 10 uM by thermal shift assay. The settings on record: tested as the 2H-labelled form.
The target in test [2] is T1, Non-receptor tyrosine-protein kinase TYK2. Briefly: Binding affinity to TYK2 JH2 domain (unknown origin) assessed as melting temperature at 1 uM by thermal shift assay. The settings on record: tested as the 2H-labelled form.
For test [3] the target is unchanged. Briefly: Inhibition of TYK2 dependent IFNalpha-stimulated STAT3 phosphorylation in human Jurkat cells. Type of test: cell-based.

T1 sequence (P29597 whole entry, the tested form may be a part): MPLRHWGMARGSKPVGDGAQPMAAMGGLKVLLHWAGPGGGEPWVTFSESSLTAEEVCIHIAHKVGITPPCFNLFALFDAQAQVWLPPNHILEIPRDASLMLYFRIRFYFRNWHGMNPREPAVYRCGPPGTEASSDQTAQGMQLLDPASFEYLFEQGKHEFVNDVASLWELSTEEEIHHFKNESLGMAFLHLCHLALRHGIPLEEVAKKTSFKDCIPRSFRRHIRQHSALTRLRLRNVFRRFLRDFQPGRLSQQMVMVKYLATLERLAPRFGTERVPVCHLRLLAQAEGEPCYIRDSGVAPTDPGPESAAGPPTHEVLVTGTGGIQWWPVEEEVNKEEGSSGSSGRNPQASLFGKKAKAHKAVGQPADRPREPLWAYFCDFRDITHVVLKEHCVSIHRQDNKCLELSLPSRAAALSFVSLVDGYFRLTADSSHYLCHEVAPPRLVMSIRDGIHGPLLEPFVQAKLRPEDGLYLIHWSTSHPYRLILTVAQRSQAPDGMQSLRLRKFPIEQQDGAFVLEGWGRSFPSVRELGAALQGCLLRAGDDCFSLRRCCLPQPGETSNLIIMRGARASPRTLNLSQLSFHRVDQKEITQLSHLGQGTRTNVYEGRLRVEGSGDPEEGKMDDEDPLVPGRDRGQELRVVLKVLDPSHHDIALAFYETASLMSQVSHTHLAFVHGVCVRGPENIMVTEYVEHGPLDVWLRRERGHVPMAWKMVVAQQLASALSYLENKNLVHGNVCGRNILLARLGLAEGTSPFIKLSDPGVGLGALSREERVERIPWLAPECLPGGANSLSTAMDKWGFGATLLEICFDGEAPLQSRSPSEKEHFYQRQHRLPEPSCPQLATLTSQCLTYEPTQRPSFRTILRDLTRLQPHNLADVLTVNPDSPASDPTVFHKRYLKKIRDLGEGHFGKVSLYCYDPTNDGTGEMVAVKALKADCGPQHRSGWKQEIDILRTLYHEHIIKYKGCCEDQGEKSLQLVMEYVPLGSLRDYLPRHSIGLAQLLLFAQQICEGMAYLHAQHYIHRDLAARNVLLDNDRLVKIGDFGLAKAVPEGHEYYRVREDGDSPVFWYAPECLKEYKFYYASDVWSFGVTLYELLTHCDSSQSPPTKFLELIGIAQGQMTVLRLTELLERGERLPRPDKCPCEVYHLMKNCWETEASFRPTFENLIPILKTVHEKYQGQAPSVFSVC

The Tm is the temperature at the midpoint of the melting transition. On to `CNC(=O)c1nnc(Nc2ccccn2)cc1Nc1cccc(C(=O)Nc2ccc(N3CCCCC3=O)cc2)c1OC`, for which the melting temperature (Tm) came to 66.5 °C in test [1] and 64 °C in test [2].
One may read the IC50 as the concentration that gives 50% inhibition. Higher therefore signals a need for much substance. Molecule `[2H]C([2H])([2H])NC(=O)c1nnc(NC(=O)C2CC2)cc1Nc1cccc(C(=O)Nc2ccc(NC(=O)C3CCCC3)cc2)c1OC` gave an IC50 in test [3] of 10 nM.
For `CNC(=O)c1nnc(NC(=O)C2CC2)cc1Nc1cccc(C(=O)Nc2ccc(-c3cccc(=O)[nH]3)cc2)c1OC`, the midpoint of thermal melting (Tm) is 56.5 °C in test [1] and 52.5 °C in test [2].
For the molecule `CNC(=O)c1nnc(NC(=O)C2CC2)cc1Nc1cccc(C(=O)Nc2ccc(C3CCCNC3=O)cc2)c1OC` (stereo not drawn), the figures for the Tm in test [1] and in test [2] were 70.2 °C and 60.1 °C, respectively.
As to `CNC(=O)c1nnc(NC(=O)C2CC2)cc1Nc1cccc(C(=O)Nc2ccc(-c3cccnc3)cc2)c1OC`, the melting temperature (Tm) in test [1] was found to be 55.5 °C; in test [2], 54.1 °C.
The molecule `[2H]C([2H])([2H])NC(=O)c1nnc(NC(=O)C2CC2)cc1Nc1cccc(C(=O)Nc2ccc(-n3ccnc3)cc2)c1OC` registered an IC50 in test [3] of 51 nM.
With `CNC(=O)c1nnc(Nc2ccc(F)cn2)cc1Nc1cccc(C(=O)Nc2ccc(N3CCCCC3=O)cc2)c1OC`, the Tm in test [1] came out at 68.8 °C; in test [2], 66 °C.
In turn, `[2H]C([2H])([2H])NC(=O)c1nnc(NC(=O)C2CC2)cc1Nc1cccc(C(=O)Nc2cccc(-n3ccccc3=O)c2)c1OC` yielded a concentration for half-maximal inhibition (IC50) in test [3] of 11 nM.
Turning to `CNC(=O)c1nnc(NC(=O)C2CC2)cc1Nc1cccc(C(=O)Nc2ccc(N3CCCCCC3=O)cc2)c1OC`, the melting temperature (Tm) was 64.8 °C in test [1] and 59.6 °C in test [2].
On the same counts, the results for `CNC(=O)c1nnc(NC(=O)C2CC2)cc1Nc1cccc(C(=O)Nc2ccc(N3CCCCC3)cc2)c1OC` are 63.4 °C and 58.2 °C.
`CNC(=O)c1nnc(NC(=O)C2CC2)cc1Nc1cccc(C(=O)Nc2ccc(-n3ccnc3)cc2)c1OC`: the values for the Tm in test [1] and in test [2] were 54 °C and 52.2 °C, respectively.
On the same counts, the results for `CNC(=O)c1nnc(NC(=O)C2CC2)cc1Nc1cccc(C(=O)Nc2ccc(-n3ccccc3=O)cc2)c1OC` are 62.2 °C and 56 °C.
Consider `CCn1cnc(-c2ccc(NC(=O)c3cccc(Nc4cc(NC(=O)C5CC5)nnc4C(=O)NC)c3OC)cc2)n1`, for which the Tm in test [1] came out at 58.2 °C; in test [2], 54.9 °C.
On to `CNC(=O)c1nnc(NC(=O)C2CC2)cc1Nc1cccc(C(=O)Nc2ccc(N3CCCCC3=O)c(Cl)c2)c1OC`, for which the Tm turned out to be 65.5 °C in test [1] and 60.4 °C in test [2].
The matching figures for `CNC(=O)c1nnc(NC(=O)C2CC2)cc1Nc1cccc(C(=O)Nc2cccc(-n3ccccc3=O)c2)c1OC`: 57.6 °C and 52.9 °C.
The matching figures for `CNC(=O)c1nnc(NC(=O)C2CC2)cc1Nc1cccc(C(=O)Nc2ccc(-c3ccc(F)c(=O)[nH]3)cc2)c1OC`: 60.1 °C and 55.9 °C.
On the same counts, the results for `CNC(=O)c1nnc(NC(=O)C2CC2)cc1Nc1cccc(C(=O)Nc2ccc(N3CCCCC3=O)cc2)c1OC` are 66.6 °C and 60.6 °C.
As for `CNC(=O)c1nnc(NC(=O)C2CC2)cc1Nc1cccc(C(=O)Nc2ccc(N3CCCCC3=O)cc2F)c1OC`, the Tm was 60.8 °C in test [1] and 56.2 °C in test [2].
As for `CNC(=O)c1nnc(NC(=O)C2CC2)cc1Nc1cccc(C(=O)Nc2ccc(N3CCCCS3(=O)=O)cc2)c1OC`, the Tm in test [1] was determined as 64.8 °C; in test [2], 58.7 °C.
The matching figures for `CNC(=O)c1nnc(NC(=O)C2CC2)cc1Nc1cccc(C(=O)Nc2ccc(N3CCCC3=O)cc2)c1OC`: 61.9 °C and 56.5 °C.
The matching figures for `CNC(=O)c1nnc(NC(=O)C2CC2)cc1Nc1cccc(C(=O)Nc2ccc(NC(=O)C3CCCC3)cc2)c1OC`: 56.2 °C and 52.7 °C.
The matching figures for `CNC(=O)c1nnc(NC(=O)C2CC2)cc1Nc1cccc(C(=O)Nc2ccc(-n3cccn3)cc2)c1OC`: 61.1 °C and 56.2 °C.
As to `CNC(=O)c1nnc(NC(=O)C2CC2)cc1Nc1cccc(C(=O)Nc2ccc(-c3ncn(C)n3)cc2)c1OC`, the Tm in test [1] worked out at 57 °C; in test [2], 53.8 °C.
